Laboratory results as given in patent publication US11958829B1, “3-(4,5-diphenyl-2-(pyridin-3-YL)-1H-imidazol-1-YL)-N,N-dimethylpopan-1-amine as an antimicrobial compound” (KING FAISAL UNIVERSITY, priority 2023, dated 2024).

Assays:
[1] = test system: Candida albicans; experiment: Anti-microbial screening, agar dilution; type: cell-based; details: after 10, 20, 40 and 60 minutes at all dilutions, 1:100, 1:200, 1:400, and 1:800
Procedure: (§1) The antibacterial properties of the present compound were studied by the method of agar dilution. Test solutions of the compound were prepared in a concentration of 1% using dimethylformamide as a solvent then they are diluted in physiological solution to obtain the final experimental dilutions 1:100, 1:200, 1:400, and 1:800. The effect of these substances were compared with furacillin in a controllable study. The testing microbes used were gram positive bacteria St. Aereus, gram negative bacteria E. Coli, Ps. aeruginosa and Candida albicans fungi were taken. The experiments used for this survey were meat-pentonlu agar (EPA) for cultivation of bacteria and Saburo environment for fungi. Each experiment used 1 ml of test solution on each plate 500 min. Add 2 drops of emulsified with microbes feel. All experimental samples were taken from the agar after 10, 20, 40, and 60 minutes in the environment on the basis of Patrk planted. Bacteria were cultivated at a temperature of 37° C. for 1 day and the mushroom was kept in a thermostat for […] at a temperature of 28° C. Then results were checked.

[2] = test system: St. Aereus; experiment: Anti-microbial screening, agar dilution; type: cell-based; details: after 10, 20, 40 and 60 minutes at all dilutions, 1:100, 1:200, 1:400, and 1:800
Procedure: as §1

[3] = test system: E. Coli; experiment: Anti-microbial screening, agar dilution; type: cell-based; details: after 10, 20, 40 and 60 minutes at all dilutions, 1:100, 1:200, 1:400, and 1:800
Procedure: as §1

[4] = test system: Ps. Aeroqonaza; experiment: Anti-microbial screening, agar dilution; type: cell-based, Ps. aeruginosa; details: after 10, 20, 40 and 60 minutes at all dilutions, 1:100, 1:200, 1:400, and 1:800
Procedure: as §1

CN(C)CCCn1c(-c2cccnc2)nc(-c2ccccc2)c1-c1ccccc1 [3-(4,5-Diphenyl-2-(pyridin-3-yl)-1H-imidazol-1-yl)-N,N-dimethylpropan-1-amine]
melting point: 145 to 147 °C
inhibition activity, Candida albicans [1]: highest inhibition activity
inhibition activity, St. Aereus [2]: highest inhibition activity
inhibition activity, E. Coli [3]: highest inhibition activity
inhibition activity, Ps. aeruginosa [4]: highest inhibition activity
